Assay results published in patent US20260241049A1, “Radiopharmaceutical Compositions Targeting Glypican-3 and Uses Thereof” (RayzeBio, Inc., priority 2023, published 2026).
Each block holds one molecule with its values, some of them ahead of it. Starred links: 1 amine or outer side, 2 acyl side, 3 side chain; linkers in the order of their positions; H or OH if unused. Positions of bridges follow the written chain, without caps; N, C: chain ends. Non-standard residues stand in square brackets, D forms with d. Residues, ends and D or L forms follow the SMILES beside them. Primed or numbered codes have the meaning given here. MeHseMe″ = (2S)-4-methoxy-2-(methylamino)butanoic acid (N-methyl-O-methyl-L-homoserine), COCC[C@@H](C(=O)[*:2])N(C)[*:1]; NMeAla(isoquinolin-7-yl) = CN[C@@H](Cc1ccc2ccncc2c1)C(=O)O; 3Pal(6-Ph) = N[C@@H](Cc1ccc(-c2ccccc2)nc1)C(=O)O; Phe(4-COOH) = N[C@@H](Cc1ccc(C(=O)O)cc1)C(=O)O; NMe2Nal = CN[C@@H](Cc1ccc2ccccc2c1)C(=O)O; NMeI = CC[C@H](C)[C@H](NC)C(=O)O; NMeQ = CN[C@@H](CCC(N)=O)C(=O)O; NMehSer = CN[C@@H](CCO)C(=O)O; NMeK = CN[C@@H](CCCCN)C(=O)O; NMeC = CN[C@@H](CS)C(=O)O

Assays:
[1] = target: Human Glypican3-Fc (Homo sapiens, UniProt P51654); assay: SPR binding to Glypican-3, Method B-4 (Glypican3-Fc on Protein A chip, peptide 40 nM); details: SPR method B-4, peptide 40 nM
Procedure: A Protein A sensor chip (Cytiva) was inserted into a Biacore T200 (Cytiva), priming was performed three times with a running buffer: HBS-P+, pH 7.4 (Cytiva), and equilibration was carried out at a flow rate of […]. Gly pican3-Fc was allowed to react for 60 seconds at a flow rate of 10 μL/min. After capturing human Glypican3-Fc, a peptide solution prepared to 1 mM in DMSO solution was diluted with a running buffer to a final concentration of 1 μM. After that, the peptide solution was diluted to 40 nM in a similar manner. Using the above samples, peptide kinetics for Glypican3 was obtained by SPR measurement. Kinetics evaluation of Glypican3 was performed by SPR measurements at a flow rate of 30 μL/min. setting the association time to 120 seconds and the disassociation time to 600 seconds.
(§1) The obtained data by Method B-1, Method B-2, Method B-3 and Method B-4 were analyzed by follow. Single Cycle Kinetics was used as the kinetics evaluation model, and curve fitting was performed using Biacore T200 Evaluation Software Version 3.0 (Cytiva). The obtained sensorgram was subjected to curve fitting by the method of least squares and obtained KD values of the macrocyclic peptides in this disclosure for Glypican 3 protein are shown in Table 18.

[2] = test system: HepG2 (glypican 3 expressed on the cell surface); assay: Flow cytometry, biotinylated peptides followed by SAPE, HepG2; type: cell-based, human; details: biotinylated peptide at 100 nM followed by SAPE (1:250), on ice; versus SK-Hep1 negative control; FIG. 1
Procedure: (§2) HepG2 (human hepatocellular carcinoma) and SK-HEP-1 (human hepatic adenocarcinoma) cell lines were purchased from the American Type Culture Collection (ATCC; Manassas, VA). Huh-7 (human hepatoblastoma) cell line was purchased from the Japanese Collection of Research Bioresources Cell Bank (JCRB Cell Bank, Osaka, Japan). HepG2 and SK-HEP-1 were grown in EMEM (FUJIFILM Wako Pure Chemical Corporation, 055-08975) with 10% fetal bovine serum (FBS; Thermo Fisher Scientific, 10270106) and 0.1% gentamicin (NACALAI TESQUE, 11980-14). Huh-7 was grown in DMEM (Thermo Fisher Scientific, 10567014) with 10% FBS and 0.1% gentamicin.
(§3) HepG2, SK-HEP-1 and Huh-7 cells were collected from the culture dish and stained with biotinylated peptides at 100 nM followed by Streptavidin, R-Phycoerythrin Conjugate (SAPE: Thermo Fisher Scientific, S866) (1:250). Cells were washed with phosphate-buffered saline (PBS; FUJIFILM Wako Pure Chemical Corporation, 043-29791) containing 0.5% FBS after addition of peptides or SAPE. All staining procedures were performed on ice. Samples were measured using CytoFLEX S (Beckman Coulter) and CytExpert ver2.4 software. All data were analyzed using FlowJo™ (BD Bioscience). For discrimination of live cells from dead cells, SYTOX™ Blue Dead Cell Stain (Thermo Fisher Scientific, S34857) (1:5000) was added prior to measurement.

[3] = test system: Huh-7 (glypican 3 expressed on the cell surface); assay: Flow cytometry, biotinylated peptides followed by SAPE, Huh-7; type: cell-based, human; details: biotinylated peptide at 100 nM followed by SAPE (1:250), on ice; versus SK-Hep1 negative control; FIG. 2
Procedure: as §2, §3

[4] = test system: HCC patient; details: cited from earlier work
[5] = test system: late-stage liver cancer patients; details: phase II clinical trial, 185 late-stage liver cancer patients; cited from earlier work
[6] = target: T1, human Glypican3 (Homo sapiens, UniProt P51654); assay: SPR binding to Glypican-3, Method B-1 (Glypican3 immobilized on CM3 chip, Biacore T200); details: SPR method B-1
T1 construct: purchased R&D systems 2119-GP
Procedure: A CM3 sensor chip (Cytiva) was inserted into a Biacore T200 (Cytiva), primed three times with a running buffer: HBS-P+, pH 7.4 (Cytiva), and equilibrated at a flow rate of 30 μL/min. Ligand immobilization was performed at a flow rate of 10 μL/min. 50 μL each of 60 mM EDC solution (Cytiva) and 650 mM NHS solution (Cytiva) were mixed, and then reacted at a flow rate of 10 μL/min for 420 seconds, 150 μL of 0.2 μM human Glypican3 (R&D systems, catalog number: 2119-GP) solution which was prepared by diluting with 10 mM acetic acid solution (pH 5.0), was reacted at a flow rate of 10 μL/min for 420 seconds, and Glypican3 was immobilized on the CM3 sensor chip. After immobilization, 1.0 M ethanolamine aqueous solution (Cytiva) was allowed to react for 420 seconds at a flow rate of 10 μL/min for capping. A peptide lysate prepared to 10 mM in DMSO solution was diluted with running buffer to a final concentration of 10 μM peptide lysate. After that, 5 serial dilution series (100 nM, 50 nM, 25 nM, 10 nM, 5 nM) of peptide solutions were prepared. Using the above samples, peptide kinetics for Glypican3 was obtained by SPR measurement. Kinetics evaluation of Glypican3 was performed by SPR measurements at a flow rate of 10 μL/min, setting the association time to 120 seconds and the disassociation time to 600 seconds.
as §1

[7] = target: Human Glypican3-Fc (ACRO Biosystems, GP3-H5258) (human) (UniProt P51654); assay: SPR (Biacore T200), Method B-3: Glypican3-Fc captured on Protein A chip, peptide as analyte
[8] = target: T2, Human Glypican3-Fc (ACRO Biosystems, GP3-H5258) (human, UniProt P51654 25-559); assay: SPR (Biacore T200), Method B-4: Glypican3-Fc captured on Protein A chip, peptide at 40 nM
T2 construct: Bought fusion protein, captured in Methods B-2, B-3 and B-4; Catalogue number is printed only in Method B-2; not shown: Fc part of the bought fusion
Procedure: Using the above samples, peptide kinetics for Glypican3 was obtained by SPR measurement.
The obtained data by Method B-1, Method B-2, Method B-3 and Method B-4 were analyzed by follow. Single Cycle Kinetics was used as the kinetics evaluation model, and curve fitting was performed using Biacore T200 Evaluation Software Version 3.0 (Cytiva).

Molecule: CC[C@H](C)[C@@H]1NC[C@H](Cc2ccc(C(=O)O)cc2)NC(=O)[C@H](CCC(N)=O)N(C)C(=O)[C@H](CC(=O)O)NC(=O)[C@H]([C@@H](C)CC)N(C)C(=O)[C@H](CCCCNC(C)=O)N(C)C(=O)CSC[C@@H](C(=O)NCC(=O)NCCOCCOCCOCCOCCOCCOCCOCCOCCOCCOCCC(=O)N[C@@H](CCCCNC(=O)CCCC[C@@H]2SC[C@@H]3NC(=O)N[C@@H]32)C(N)=O)N(C)C(=O)[C@H](Cc2ccc(-c3ccccc3)nc2)NC(=O)CNC(=O)[C@H](Cc2ccc3ccncc3c2)N(C)C(=O)[C@H](Cc2ccc(O)cc2)NC(=O)[C@H]([C@@H](C)CC)NC1=O [PLB-60]
- comparative staining of HepG2 cells (flow cytometry) [2]: specific binding
- comparative staining of Huh-7 cells (flow cytometry) [3]: specific binding

Molecule: Codrituzumab
- tolerance in phase I clinical trials ([4]; phase I clinical trials): good immune tolerance
- anti-tumour effect in HCC patient ([4]; phase I, advanced hepatocellular carcinoma): anti-tumour effect
- therapeutic efficacy compared with the control group [5]: not impressive

B1: Macrocyclic peptide of Example 2-37 (SEQ ID No. 54) (peptide)
peptide: XSDXFTIXFGXC
modifications: not fully specified; MeDapCOpipzaa-MeHseMe-D-MeDapCOpipzaa-F4COO-TMe-I-Yae-MeNal27N-G-3Py6Ph-MeC-NH2; thioether ring from N-terminal acetyl to MeC12
- Kd [7]: 1000 pM

B2: Macrocyclic peptide of Example 2-61 (SEQ ID No. 72) (peptide)
peptide: {CH2CO}-[NMeK][MeHseMe″]D[NMeQ][Phe(4-COOH)]IIY[NMeAla(isoquinolin-7-yl)]G[3Pal(6-Ph)][NMeC]-NH2
modifications: thioether N-12
SMILES: CC[C@H](C)[C@@H]1NC(=O)[C@H](Cc2ccc(C(=O)O)cc2)NC(=O)[C@H](CCC(N)=O)N(C)C(=O)[C@H](CC(=O)O)NC(=O)[C@H](CCOC)N(C)C(=O)[C@H](CCCCN)N(C)C(=O)CSC[C@@H](C(N)=O)N(C)C(=O)[C@H](Cc2ccc(-c3ccccc3)nc2)NC(=O)CNC(=O)[C@H](Cc2ccc3ccncc3c2)N(C)C(=O)[C@H](Cc2ccc(O)cc2)NC(=O)[C@H]([C@@H](C)CC)NC1=O
- Kd [8]: 230 pM

B3: Macrocyclic peptide of Example 2-33 (SEQ ID No. 50) (peptide)
peptide: XSDXFTIXFGXC
modifications: not fully specified; MeDapCOpipzaa-MeHseMe-D-MeDapCOpipzaa-F4COO-TMe-I-Yae-MeNal2-G-3Py6Ph-MeC-NH2; thioether ring from N-terminal acetyl to MeC12
- Kd [7]: 300 pM

Other lines, results leading:

- Kd [1]: 230 pM
Molecule: CC[C@H](C)[C@@H]1NC(=O)[C@H](Cc2ccc(C(=O)O)cc2)NC(=O)[C@H](CCC(N)=O)N(C)C(=O)[C@H](CC(=O)O)NC(=O)[C@H](CCOC)N(C)C(=O)[C@H](CCCCN)N(C)C(=O)CSC[C@@H](C(N)=O)N(C)C(=O)[C@H](Cc2ccc(-c3ccccc3)nc2)NC(=O)CNC(=O)[C@H](Cc2ccc3ccncc3c2)N(C)C(=O)[C@H](Cc2ccc(O)cc2)NC(=O)[C@H]([C@@H](C)CC)NC1=O [Conjugate 2-61] ({CH2CO}-[NMeK][NMehSer](Me)D[NMeQ][Phe(4-COOH)]IIY[NMeAla(isoquinolin-7-yl)]G[3Pal(6-Ph)][NMeC]-NH2; thioether N-12)

- Kd [6]: 500 pM
Molecule: CC[C@H](C)[C@@H]1NC(=O)[C@H](Cc2ccc(C(=O)O)cc2)NC(=O)[C@H](CCC(N)=O)N(C)C(=O)[C@H](CC(=O)O)NC(=O)[C@H]([C@@H](C)CC)N(C)C(=O)[C@H](CCCCNC(C)=O)N(C)C(=O)CSC[C@@H](C(N)=O)N(C)C(=O)[C@H](Cc2ccc(-c3ccccc3)nc2)NC(=O)CNC(=O)[C@H](Cc2ccc3ccccc3c2)N(C)C(=O)[C@H](Cc2ccc(C(=O)O)cc2)NC(=O)[C@H]([C@@H](C)CC)NC1=O [Conjugate 2-1] ({CH2CO}-[NMeK](Ac)[NMeI]D[NMeQ][Phe(4-COOH)]II[Phe(4-COOH)][NMe2Nal]G[3Pal(6-Ph)][NMeC]-NH2; thioether N-12)
